Legend:
[1] = target: Reverse Transcriptase from Patient #B infected by HIV-1 (Human immunodeficiency virus type 1, UniProt P04585)
Protocol: (§1) Transformed cells (that grew in TRP lacking media) were incubated for 16h with shacking in 13 mL rich medium (Yeast extract Peptone Dextrose) at a final cell density 0,06 OD / mL.
(§2) 13 mL cell culture supernatant was collected after centrifugation at 1500 rpm for 5min and kept as the source for in vitro Reverse Transcriptase resistance analysis.
(§3) HIV Reverse Transcriptase resistance to reverse transcriptase inhibitors was analyzed as follows.
(§4) In a final volume of 150µl, 120µl of transformed cell's medium were incubated in 56 mM Tris-HCl, 56 mM KCl and 9 mM MgCl2 with: • 1.76µg of MS2 RNA (SEQ ID NO: 20), and • 0.059 pmoles of 5'biotinylated primer of SEQ ID NO: 19, and • dNTP mixture (1.5pmoles of each one; dATP, dGTP, dCTP, and dTTP), and • 0.19 pmoles of DIG (digoxigenin) modified dUTP, and • 30 µl of one of each concentration out of eight serial one to one dilutions of Reverse Transcriptase inhibitors in water (in this way the inhibitor was further diluted […]).
(§5) The Reverse Transcriptase inhibitor's one to one dilution started at the following concentrations:
(§6) The mixture reaction was incubated at 37°C for an overnight period (16 - 20 hours).
(§7) At the end of the incubation, each reaction mixture was transferred to a streptavidin coated flat bottom well for ELISA based RNA retro-transcribed DNA determination.
(§8) Wells were washed three times with 200µl of wash buffer (0.1%BSA and 0.05% Tween in PBS) before 30min incubation at room temperature with 100µl of a 1:1000 dilution of Peroxidase -conjugated monoclonal mouse anti-DIG (from Jackson Immunosearch ref N°JIR 200-032-156) in wash buffer.

[2] = target: Reverse Transcriptase from Patient #C infected by HIV-1 (Human immunodeficiency virus type 1, UniProt P04585)
Protocol: as §1, §2, §3, §4, §5, §6, §7, §8

[3] = target: Reverse Transcriptase from Patient #A infected by HIV-1 (Human immunodeficiency virus type 1, UniProt P04585)
Protocol: as §1, §2, §3, §4, §5, §6, §7, §8

Measured: sensitivity of RT to inhibitor compared with the reference isolate HIV-1 IIIB

Cc1ccnc2c1NC(=O)c1cccnc1N2C1CC1 [NVP, nevirapine]
more sensitive: all assays above

Reference: patent publication EP3088535A1 (priority 2015, dated 2016)
